The values that follow come from US5128051A, “Method for the control of biofouling” (Union Carbide Chemicals & Plastics Technology Corporation, priority 1991, dated 1992).

The structures appear in SMILES notation. Read-outs that look alike come from different tables or passages of the source. Some results are limits rather than exact numbers.

In one assay the test system is S. aureus. Particulars: planktonic; cited from earlier work.
The next assay relates to C. albic. Conditions: planktonic; cited from earlier work.
The next assay deals with K. pneum. Particulars: planktonic; cited from earlier work.
The test system of the next assay is P. aerug. Conditions: planktonic; cited from earlier work.
The next assay deals with P. vulg. Conditions: planktonic; cited from earlier work.
Assay [1] has as its system Aerobic Bacterial Biofilms. As to the kind of experiment: Log reduction of sessile microorganisms in aerobic biofilm (Example 2, Procedure A). The format is cell-based, predominantly Pseudomonas species. Particulars: Pseudomonas, 7.4 represents complete kill. The method, then: (§1) Approximately 20 ml of sterile Bacto TGE broth (Difco Labs) were placed in a sterile Petri dish (15×100 mm). To this media, 10 ml of a 24 hour culture of the aerobic organisms to be tested were added. Sterile, stainless steel penicylinders (10 mm O.D., 7 mm I.D., 10 mm long) were then placed in the inoculated media. The cylinders were placed in the dish either on-end or on-side. The Petri dish containing the cylinders was then incubated at 37° C. for 48 hours. At that time, cylinders were individually removed aseptically using forceps, blotted on sterile filter paper, and washed three times by dipping in sterile saline solution. This procedure was used to ensure that only organisms that were firmly attached in the biofilm were tested.
(§2) Two biofilm-coated cylinders were then carefully dropped into separate 10 ml test tubes containing biocide solutions of varying concentrations. After one hour and four hour contact times, a cylinder was aseptically transferred to a fresh tube of TGE broth and vortexed for 30 seconds to remove all sessile organisms. The resulting broth suspension was then serially diluted and plated using TGE agar for enumeration. Plates were incubated for 48 hours at 37° C. before counting.
(§3) To minimize error, all biocide concentration/contact time points reported below were tested in duplicate and the results averaged. Results are reported as log reduction of microorganisms compared to control cylinders treated in the same manner except that no biocide was employed.
Respective samples of the five compounds were tested against the sessile microorganisms embedded in biofilms. The biofilm was comprised of a variety of microorganisms, but contained predominantly Pseudomonas species cultivated using Procedure A. The number of organisms were counted after one hour and four hours of contact.

Assay [2] deals with Aerobic Bacterial Biofilms (oil field isolate). The assay is described as follows: Log reduction of sessile aerobic bacteria in biofilm on stainless steel penicylinders (Example 1, Procedure A). Type of assay: cell-based, predominantly Pseudomonas species. Particulars: Pseudomonas; for log reduction at 10 ppm / log reduction at 25 ppm / log reduction at 50 ppm: 5.1 represents complete kill. On the procedure:
as §1, §2, §3
An oil field isolate of aerobic bacteria was utilized in all aerobic biofilm experiments. This culture was taken from a water-flooded oil well in Texas and was tentatively identified as containing predominantly Pseudomonas species. The biofilms were developed following above Procedure A. Respective samples were treated with various concentrations of the biocides listed below and the number of bacteria were counted after one hour and four hours of contact.

The subject of a further assay is biofilm deposits. Conditions: dynamic laboratory reactors, waterflood pipeline conditions; Eagar et al.; cited from earlier work.
For assay [3], the system named is Sessile Anaerobic Bacterial Biofilms (SRB). As to the kind of experiment: Log reduction of sessile sulfate-reducing bacteria in biofilm on mild steel penicylinders (Example 3, Procedure B). The format is cell-based. Conditions: for log reduction at 100 ppm / log reduction at 250 ppm: 4 represents complete kill; for concentration required to achieve the same level of effectiveness as OPA: SRB biofilm, compared with OPA 10 ppm, 4 hours. The method, then:
SRB-containing media were prepared as follows:
14.5 g of Bacto Sulfate API Broth (Difco Labs) and 2.0 g Bacto Agar (Difco Labs) were added to 1000 ml distilled water. The solution was heated and stirred until all components were dissolved. A 1% solution of sodium thioglycollate in distilled water was also prepared. Both solutions were then autoclaved at 121° C. for 30 minutes. After cooling, 5 g of the sodium thioglycollate solution was added to the media mixture.
Mild steel penicylinders (10 mm O.D., 7 mm I.D., 10 mm long) were cleaned by soaking for 10 minutes in 0.5% hydrochloric acid. Cylinders were then rinsed three times with distilled water and dried before use.
A 4 oz screw-capped bottle was purged with argon to remove oxygen, capped and then autoclaved. After cooling, 100 ml of sterile SRB media was added to this bottle. Cleaned penicylinders were then added along with 10 ml of a five day old SRB culture. All operations were conducted under a constant stream of argon to minimize oxygen levels. The bottle was then incubated for 7-14 days (depending on the SRB used) at 37° C. At that time, cylinders were individually removed aseptically using forceps and blotted on sterile filter paper.
Two biofilm-coated cylinders were then carefully dropped into separate 10 ml test tubes of deaerated biocide solutions of varying concentrations. All of the biocide and control solutions contained 30 ppm of a non-ionic nonyl phenol ethoxylate surfactant (TERGITOL® NP-4, Union Carbide Chemicals and Plastics Company Inc., Danbury, CT). After one hour and four hour contact times, a cylinder was removed, blotted on sterile filter paper, and placed into a commercially available SRB vial (C&S Laboratories, Tulsa, OK). The vial was then sonicated (Bransonic Model 12) for 30 seconds to remove sessile organisms. The resulting solution was serially diluted into additional SRB vials for enumeration. Vials were grown for 28 days at 37° C. before reading. Blackening of the vials was used as an indication of growth.
as §3
A SRB culture was obtained from a water-flooded oil well in Alaska. The bacteria were then cultivated on the walls of the steel penicylinders using Procedure B described above. Respective samples were then contacted with glutaraldehyde, formaldehyde or OPA for one and four hours with the following results: […]

Another assay deals with sessile microorganisms. Particulars: Pope et al.; cited from earlier work.
Where [4] appears, read: 1 hr contact, read-out: log reduction after 1 hr.
Setting [5] is: 4 hr contact, read-out: log reduction after 4 hr.
Where [6] appears, read: 1 h, read-out: log reduction after 1 hr.
The mark [7] stands for this setting: 4 h, read-out: log reduction after 4 hr.

In the case of `O=Cc1ccccc1C(=O)O` [CB, 2-carboxybenzaldehyde], the MIC was 0.5 mMole % in the assay on S. aureus; 1.0 mMole % with C. albic.; 2.5 mMole % in the assay on K. pneum.; 2.5 mMole % with P. aerug.; 1.0 mMole % in the assay with P. vulg.. The log reduction at 50 ppm in assay [1] (setting [4]) and in assay [1] (setting [5]) was 0 each time. Moreover, the log reduction at 100 ppm was determined as 0 in assay [1] (setting [4]) and 0.1 in assay [1] (setting [5]). The log reduction at 200 ppm in assay [1] (setting [4]) was determined as 0.6; in assay [1] (setting [5]), 0.5.
With `COc1cccc(C=O)c1O` [OVA, ortho-vanillin], the MIC with S. aureus is recorded as 0.5 mMole %; in the assay on C. albic. it was 0.25 mMole %; in the assay with K. pneum., 0.25 mMole %; in the assay on P. aerug., 0.5 mMole %; with P. vulg. it was 0.25 mMole %. For the same compound, the log reduction at 50 ppm in assay [1] (setting [4]) and in assay [1] (setting [5]) was 0 each time. For the same compound, the log reduction at 100 ppm in [1] (setting [4]) and in assay [1] (setting [5]) was 0 each time. Besides, the log reduction at 200 ppm in assay [1] (setting [4]) and in assay [1] (setting [5]) was 0.3 each time.
`O=CCCCC=O` [GA, glutaraldehyde]: the log reduction at 10 ppm in assay [2] (setting [4]) was found to be 0.1; in assay [2] (setting [5]), 0.7. Also, the log reduction at 25 ppm in [2] (setting [4]) stood at 0.3; in assay [2] (setting [5]) it was 1.7. For the same compound, the log reduction at 50 ppm in assay [2] (setting [4]) and in [2] (setting [5]) was 5.1 in each case. Also, the “removing biofilm deposits and controlling number of viable organisms” value with biofilm deposits was “effective in removing biofilm deposits and controlling the number of viable organisms”. The log reduction at 100 ppm in assay [3] (setting [4]) was 3; in assay [3] (setting [5]), 4. In assay [3], the “concentration required to achieve the same level of effectiveness as OPA” value was “Significantly higher concentrations”.
As to `O=Cc1ccccc1O` [SA, salicylaldehyde], the MIC in the assay on S. aureus, in the assay with C. albic., with K. pneum., in the assay on P. aerug. and in the assay with P. vulg. was 0.25 mMole % in each case. Moreover, the log reduction at 50 ppm in [1] (setting [4]) and in assay [1] (setting [5]) was 0 each time. The log reduction at 100 ppm in assay [1] (setting [4]) and in assay [1] (setting [5]) was 0 throughout. Further, the log reduction at 200 ppm in assay [1] (setting [4]) and in [1] (setting [5]) was 0.2 in each case.
Regarding `O=Cc1cccc(O)c1O` [DHB, 2,3-dihydroxybenzaldehyde], the MIC in the assay with S. aureus is recorded as 0.25 mMole %; with C. albic., less than 0.025 mMole %; in the assay on K. pneum. it was 0.05 mMole %; in the assay with P. aerug., 0.25 mMole %; with P. vulg. it was 0.25 mMole %. Besides, the log reduction at 50 ppm in [1] (setting [4]) and in [1] (setting [5]) was 0 throughout. Also, the log reduction at 100 ppm in assay [1] (setting [4]) came to 0.5; in assay [1] (setting [5]), 0. Also, the log reduction at 200 ppm in assay [1] (setting [4]) was found to be 1.1; in assay [1] (setting [5]), 0.2.
Take `C=O` [FA, formaldehyde]: in the assay on sessile microorganisms, the performance in tests result is listed as “performed well in one test but poorly in another test”. For the same compound, in assay [2] (setting [6]), the log reduction at 250 ppm turned out to be 2, the log reduction at 500 ppm amounted to 2.6 and the log reduction at 1000 ppm came out at 5.1. Moreover, in assay [2] (setting [7]), the log reduction at 250 ppm turned out to be 5.1, the log reduction at 500 ppm stood at 5.1 and the log reduction at 1000 ppm came out at 5.1. Also, in assay [3] (setting [4]), the log reduction at 100 ppm was less than 2 and the log reduction at 250 ppm was less than 2. For the same compound, in [3] (setting [5]), the log reduction at 100 ppm is less than 2 and the log reduction at 250 ppm was 3. The “concentration required to achieve the same level of effectiveness as OPA” value in assay [3] is on record as “Significantly higher concentrations”.
